Consider two compounds from BindingDB's records for doi:10.1124/jpet.104.081711 (Taisho Pharmaceutical, 2005).

The target of assay [1] is 5-hydroxytryptamine receptor 2B (Homo sapiens, UniProt P41595).
The target in assay [2] is Melanin-concentrating hormone receptor 1 (Homo sapiens, UniProt Q99705).
Assay [3] deals with T1, 5-hydroxytryptamine receptor 1A (Homo sapiens, UniProt P08908).
T1 sequence (P08908 whole entry): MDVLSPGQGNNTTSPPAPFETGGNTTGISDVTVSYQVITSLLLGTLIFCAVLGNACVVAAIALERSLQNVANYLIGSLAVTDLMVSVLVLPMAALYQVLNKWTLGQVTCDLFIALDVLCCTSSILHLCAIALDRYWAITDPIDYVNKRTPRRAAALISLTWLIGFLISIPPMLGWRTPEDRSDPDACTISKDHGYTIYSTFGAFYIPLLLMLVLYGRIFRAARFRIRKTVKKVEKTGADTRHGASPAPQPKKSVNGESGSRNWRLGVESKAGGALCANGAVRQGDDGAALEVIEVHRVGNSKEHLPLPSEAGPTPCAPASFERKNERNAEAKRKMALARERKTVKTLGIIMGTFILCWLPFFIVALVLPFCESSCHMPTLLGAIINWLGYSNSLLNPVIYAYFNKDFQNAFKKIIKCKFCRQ

Sequence of 5-hydroxytryptamine receptor 2B (P41595 whole entry): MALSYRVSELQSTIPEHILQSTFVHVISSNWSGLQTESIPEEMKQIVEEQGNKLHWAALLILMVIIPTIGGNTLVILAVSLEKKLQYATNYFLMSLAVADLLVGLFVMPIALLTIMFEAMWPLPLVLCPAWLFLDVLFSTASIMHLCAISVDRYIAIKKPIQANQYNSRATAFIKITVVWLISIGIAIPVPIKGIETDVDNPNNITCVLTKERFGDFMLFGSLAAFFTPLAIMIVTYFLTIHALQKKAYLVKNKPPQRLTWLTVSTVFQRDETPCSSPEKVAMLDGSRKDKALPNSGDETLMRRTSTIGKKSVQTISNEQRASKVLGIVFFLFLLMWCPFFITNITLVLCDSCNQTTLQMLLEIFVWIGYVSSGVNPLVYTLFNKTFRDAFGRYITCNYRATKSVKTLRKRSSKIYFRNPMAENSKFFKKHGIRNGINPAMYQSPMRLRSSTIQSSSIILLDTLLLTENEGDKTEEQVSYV
Sequence of Melanin-concentrating hormone receptor 1 (Q99705 as listed by the source): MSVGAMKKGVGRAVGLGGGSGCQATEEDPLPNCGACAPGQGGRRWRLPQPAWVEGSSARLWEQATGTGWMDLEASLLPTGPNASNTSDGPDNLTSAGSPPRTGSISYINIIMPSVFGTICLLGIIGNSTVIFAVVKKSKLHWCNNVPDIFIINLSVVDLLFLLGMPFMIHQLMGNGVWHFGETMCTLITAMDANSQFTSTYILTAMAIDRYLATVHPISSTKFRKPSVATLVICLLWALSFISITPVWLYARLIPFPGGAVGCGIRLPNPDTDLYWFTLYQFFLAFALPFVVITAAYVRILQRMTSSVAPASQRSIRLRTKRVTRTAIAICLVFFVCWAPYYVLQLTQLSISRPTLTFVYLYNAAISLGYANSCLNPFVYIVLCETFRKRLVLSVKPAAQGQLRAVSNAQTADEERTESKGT

Consider `CN(C)c1nc(N[C@H]2CC[C@@H](NCCc3ccc(Br)cc3OC(F)(F)F)CC2)nc2ccccc12` [CAS_510732-84-0], for which the inhibition constant (Ki) amounted to 266 nM in assay [1] and 15.7 nM in assay [2].
For `CN(C)c1nc(N[C@H]2CC[C@@H](NC(=O)c3ccc(F)c(F)c3)CC2)nc2ccccc12` [ATC0175], the figures for the Ki in assay [3] and in assay [1] were 16.9 nM and 9.66 nM, respectively.
